Experimental data published in patent US8618066B1 (priority 2003, dated 2013).
“Also recorded” adds a separate entry of the source. Where two headings read alike, the source gives them in different places. No end group written: not given here.

B1: Holotricin 3: peptide, source Holotrichia diomphalia (peptide, listed as Holotrichia diomphalia)
chain: YGPGDGHGGGHGGGHGGGHGNGQGGGHGHGPGGGFGGGHGGGHGGGGRGGGGSGGGGSPGHGAGGGYPGGHGGGHHGGYQTHGY
modifications: Holotricin 3
notes: peptide, source Holotrichia diomphalia
B2: NK-Lysin: peptide, source Sus scrofa (peptide, listed as Amaranthus caudatus)
chain: GYFCESCRKIIQKLEDMVGPQPNEDTVTQAASQVCDKLKILRGLCKKIMRSFLRRISWDILTGKKPQAICVDIKICKE

Legend:
[1] = test system: Fusarium oxysporum f. sp. lycopersici
[2] = test system: Bacillus atrophaeus (B. atrophaeus); type: cell-based
[3] = test system: Fusarium oxysporum f. sp. lycopersici (F. oxysporum); type: cell-based
[4] = test system: Gram+ & Gram− bacteria, fungi, virus, mammalian/cancer cells; settings: cited from earlier work
[5] = classes of organisms/cells the peptide is active against

Molecule	Activity [4]	other results
FRLKFHI [antimicrobial peptidic agent-7]		growth at the lowest peptide concentration tested [1]: clear retardation of growth; inhibition at the lowest peptide concentration tested ([1]; 48 h, 0.78 mg/ml): less than 10%
FRLKFHI [ProteCoat, amino acid polymer consisting essentially of 7 amino acids]	Fungi	% Growth Inhibition, ProteCoat alone [2]: 0%; % Growth Inhibition, ProteCoat alone [3]: 44%
Brevinin-1BB: peptide, source Rio Grande leopard frog (FLPAIAGMAAKFLPKIFCAISKKC; Brevinin-1BB; listed as Rana berlandieri)	Gram+ & Gram−, Fungi	
Ranatuerin-2CA: peptide, source Green frog (GLFLDTLKGAAKDVAGKLLEGLKCKIAGCKP; Rana clamitans; Ranatuerin-2CA)	Gram+ & Gram−, Fungi	
Tracheal antimicrobial peptide: peptide, source Bovine (NPVSCVRNKGICVPIRCPGSMKQIGTCVGRAVKCCRKK; Tracheal antimicrobial peptide; listed as Bos taurus)	Gram+ & Gram−, Fungi	
Ginkbilobin: source Ginkgo (ANTAFVSSAHNTQKIPAGAPFNRNLRAMLADLRQNAAFAG; Ginkbilobin; listed as Ginkgo biloba)	Gram+ & Gram−, Virus, Fungi	
SEQ ID No. 28: synthetic antifungal peptide, Table 1 (HRF)	Fungi	
Sativum defensin 1 (psd1): peptide, source Seed of Pea (KTCEHLADTYRGVCFTNASCDDHCKNKAHLISGTCHNWKCFCTQNC; Seed of pea defensin 1 (psd1); listed as Pisum sativum)	Fungi	
Aurein 1.1: peptide, source Southern bell frog (GLFDIIKKIAESI; Aurein 1.1; listed as Litoria raniformis)	Gram+ & Gram−, Fungi	
FRLKHI [SEQ ID No. 198]	Gram+ & Gram−, Fungi	
SEQ ID No. 47: synthetic antifungal peptide, Table 1 (WFKLRF)	Fungi	
Opistoporin 2: peptide, source African yellow leg scorpion (GKVWDWIKSTAKKLWNSEPVKELKNTALNAAKNFVAEKIGATPS; Opistoporin 2; listed as Opistophthalmus carinatus)		Activity [4, 5]: Gram+ & Gram−, Fungi,; also recorded: Mammalian cells
Melittin B		Activity [4, 5]: Gram+ & Gram−, Fungi,; also recorded: Mammalian cells
SEQ ID No. 35: synthetic antifungal peptide, Table 1 (IFKLRF)	Fungi	
Histone H2A (fragment): source Rainbow trout (AERVGAGAPVYL; Oncorhynchus mykiss; Histone H2A (Fragment))	Gram+, Fungi	
Histatin 3: peptide, source Human (DSHAKRHHGYKRKFHEKHHSHRGYRSNYLYDN; Histatin 3; listed as Homo sapiens)	Gram+ & Gram−, Fungi	
Histone H2B-1 (HLP-1) (Fragment): source Rainbow trout (PDPAKTAPKKGSKKAVTKA; Oncorhynchus mykiss; Histone H2B-1(HLP-1)(Fragment))	Gram+ & Gram−, Fungi	
Neutrophil defensin 2 (RMAD-2): peptide, source Rhesus macaque (ACYCRIPACLAGERRYGTCFYMGRVWAFCC; neutrophil defensin 2 (RMAD-2); listed as Macaca mulatta)	Gram+ & Gram−, Fungi	
SEQ ID No. 196: synthetic antifungal peptide, Table 1 (WCTWKGQPCW; listed as Fusarium graminearum)	Fungi	
SEQ ID No. 184: synthetic antifungal peptide, Table 1 (YMPQGPRLNLWHW)	Fungi	
Spingerin: peptide, source Pseudacanthotermes spiniger (HVDKKVADKVLLLKQLRIMRLLTRL; Pseudacanthotermas spiniger; Spingerin)	Gram+ & Gram−, Fungi	
SEQ ID No. 43: synthetic antifungal peptide, Table 1 (SFKLRF)	Fungi	
Pseudin 1: peptide, source Paradoxical frog (GLNTLKKVFQGLHEAIKLINNHVQ; Pseudin 1; listed as Pseudis paradoxa)	Gram+ & Gram−, Fungi	
Cecropin A: peptide, source Nocutuid moth (RWKVFKKIEKVGRNIRDGVIKAAPAIEVLGQAKAL; Cecropin A; listed as Heliothis virescens)	Gram+ & Gram−, Fungi	
B1	Fungi	
B2	Gram+ & Gram−, Fungi	
